For 13 compounds, IC50 results are on record in patent US6369225B1, “Compounds having activity as inhibitors of cytochrome P450RAI” (Allergan Sales, Inc., priority 2000, dated 2002).

pIC50: −log10 of the molar value.

The assay concerns the target T1, P450RAI-1 (Homo sapiens, UniProt O43174).
T1 construct: expressed in transfected cells; host or cells: HeLa cells, stably transfected, hygromycin selection
T1 sequence (O43174 1-497): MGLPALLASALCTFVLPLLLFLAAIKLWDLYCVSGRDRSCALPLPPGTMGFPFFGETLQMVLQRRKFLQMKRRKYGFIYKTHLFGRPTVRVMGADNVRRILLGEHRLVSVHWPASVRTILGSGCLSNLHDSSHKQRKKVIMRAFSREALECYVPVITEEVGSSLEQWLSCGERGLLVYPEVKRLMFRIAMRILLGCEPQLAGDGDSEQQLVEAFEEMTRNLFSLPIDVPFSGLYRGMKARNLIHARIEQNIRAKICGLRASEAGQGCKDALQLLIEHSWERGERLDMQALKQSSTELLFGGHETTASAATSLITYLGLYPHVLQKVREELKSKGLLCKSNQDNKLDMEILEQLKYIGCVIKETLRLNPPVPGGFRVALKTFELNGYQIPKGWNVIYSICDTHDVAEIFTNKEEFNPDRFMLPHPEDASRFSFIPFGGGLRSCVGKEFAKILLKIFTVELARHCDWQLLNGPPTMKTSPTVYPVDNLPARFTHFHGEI
The assay is described as follows: P450RAI-1 cell-based inhibitor assay. To be noted: P450RAI-1 stably transfected HeLa cells, [3H]-RA metabolism, 3 hours at 37° C.; read-out: P450RAI INHIBITION DATA INTACT HELA IC50. As to the method:
P450RAI-1 stably transfected HeLa cells are maintained in […] tissue culture dishes in Modified Eagle's Medium (MEM) containing 10% Fetal Bovine Serum (FBS) and 100 μg/ml hygromycin. Exponentially growing cells are harvested by incubating in trypsin. Cells are then washed with 1× Phosphate Buffered Saline (PBS) and plated in a 48-well plate at 5×10^5 cells in 0.2 ml MEM medium containing 10% FBS and 0.05 μCi[^3H]-RA in the presence or absence of increasing concentrations of the test compounds. The compounds are diluted in 100% DMSO and then added in triplicate wells at either 10, 1 or 0.1 μM final concentration. As a positive control for RA metabolism inhibition, cells are also incubated with ketoconazole at 100, 10 and 1 μM. Cell are incubated for 3 hours at 37° C. […] The water soluble radioactivity is quantified using a β-scintillation counter. IC50 values represent the concentration of inhibitor required to inhibit all-trans-RA metabolism by 50 percent and are derived manually from log-transformed data.
Regarding `CC1(C)CCC(=O)c2ccc(C(=O)Oc3ccc(CC(=O)O)cc3)cc21` [Compound 20, 8,8-Dimethyl-5-oxo-5,6,7,8-tetrahydro-naphthalene-2-carboxylic Acid-4-(carboxymethyl)phenyl Ester], the pIC50 (in general, the IC50 on a negative log10 scale, so that one unit is a factor of ten) is less than 5.00.
As for `CC1(C)CN(C2CC2)Cc2ccc(C#Cc3ccc(CC(=O)O)cc3)cc21` [Compound 24, [4-(2-Cyclopropyl-4,4-dimethyl-1,2,3,4-tetrahydro-isoquinoline-6-yl-ethynyl)-phenyl]-acetic Acid], the pIC50 is 5.52.
Regarding `CC1(C)CC(C)(C)c2cc(C(=O)Oc3ccc(CC(=O)O)cc3)ccc2O1` [Compound 46, 1,2,2,4,4-Tetramethyl-chroman-6-carboxylic Acid 4-(carboxymethyl)phenyl Ester], the pIC50 is 5.66.
As for `CC1(C)CC2(CC2)Oc2c(C3CC3)cc(C#Cc3ccc(C(=O)O)cc3)cc21` [Compound 52, Benzoic Acid, 4-[(8-cyclopropyl-3,4-dihydro-4,4-dimethylspiro[2H-1-benzopyran-2,1′-cyclopropane]-6-yl)ethynyl]-], the pIC50 is 7.30.
Consider `CC1(C)CC2(CC2)Oc2c(C3CC3)cc(C#Cc3ccc(C(=O)O)c(F)c3)cc21` [Compound 54, 4-[(8-Cyclopropyl-3,4-dihydro-4,4-dimethylspiro[2H-1-benzopyran-2,1′-cyclopropane]-6-yl)ethynyl]-2-fluoro-benzoic Acid], for which the pIC50 was 7.66.
On to `CCc1cc(C#Cc2ccc(CC(=O)O)cc2)cc2c1OC(C)(C)CC2(C)C` [Compound 56, [4-(8-Ethyl-2,2,4,4-tetramethyl-chroman-6-yl-ethynyl)phenyl]acetic Acid], for which the pIC50 was 6.89.
Next, `CC1(C)CC2(CC2)Oc2c(C3CC3)cc(C(=O)Oc3cccc(CC(=O)O)c3)cc21` [Compound 60, Spiro[2H-1-benzopyran-2,1′-cyclopropane]-6-carboxylic Acid, 8-cyclopropyl-3,4-dihydro-4,4-dimethyl-, 3-(carboxymethyl)phenyl Ester]: 5.80; `CC1(C)CCN(C2CC2)c2ccc(C#Cc3ccc(C(=O)O)cc3)cc21` [Compound 62, 4-(1-Cyclopropyl-4,4-dimethyl-1,2,3,4-tetrahydroquinolin-6-yl-ethynyl)-benzoic Acid]: less than 5.00.
`CCc1cc(C#Cc2ccc(CC(=O)O)cc2)ccc1C1(OC(C)C)CC1` [Compound 98, {4-[4-(1-Isopropoxycyclopropyl)-3-ethyl-phenylethynyl]-phenyl}-acetic Acid]: the pIC50 is 6.10.
Take `CCN(Cc1ccc(C#Cc2ccc(C(=O)O)cc2)cc1C(C)C)C1CC1` [Compound 134, 4-{4-[(Cyclopropyl-ethyl-amino)-methyl]-3-isopropyly-phenylethynyl}-benzoic Acid]: the pIC50 was 5.30.
As to `CC1(C)CCC(n2ccnc2)c2ccc(C#Cc3ccc(C(=O)O)cc3)cc21` (stereo not shown) [Compound 139], the pIC50 was 7.30.
Take `COc1c(C(C)(C)C)cc(C#Cc2ccc(CC(=O)O)cc2)cc1C(C)(C)C` [Compound 143, [4-(3,5-Di-tert-butyl-4-methoxy-phenylethynyl)-phenyl]-acetic Acid]: the pIC50 was 6.10.
Turning to `COc1c(C(C)(C)C)cc(C#Cc2ccc(CC(=O)O)c(F)c2)cc1C(C)(C)C` [Compound 145, [4-(3,5-Di-tert-butyl-4-methoxy-phenylethynyl)-2-fluoro-phenyl]-acetic Acid], the pIC50 is 6.70.
